The source of these data is US20110044938A1 (NYCOMED GMBH, priority 2006, published 2011).

Molecules are shown by their SMILES. Where only a bound is given, the exact number is not on record here.

The test system of assay [1] is RKO (RKOp27) human colon adenocarcinoma cells. As to the kind of experiment: Alamar Blue cell viability assay, anti-proliferative/cytotoxic activity on proliferating RKO subclones. Type of assay: cell-based. Conditions: RKOp27, 72 h, RKO p27 uninduced (proliferating) cells, value = class bound given in Table A, read-out: −logIC50 RKO p27 uninduced (proliferating) (converted). The method in brief: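 Alamar Blue fluorescence (ex 544, em 590 nm) after 72 h compound exposure at 37 °C, 5% CO2, normalised to untreated controls set at 100%. Cells were seeded at 5000 per well and dosed 24 h later with serial semi-logarithmic dilutions in 10% FCS DMEM, four replicates each. −log IC50 [mol/l] was derived from concentration-effect curves.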
Background: Resazurin is reduced to fluorescent resorufin, in cell work by metabolically active cells.

Assay [2] relates to subclones of RKO colon adenocarcinoma cells (RKOp27 or RKOp21) arrested by Ponasterone A. As to the kind of experiment: Alamar Blue cell viability assay, cell cycle specific mode of action: cells arrested by ectopic p27Kip1 induced by Ponasterone A versus proliferating cells. Type of assay: cell-based. Conditions: Homo sapiens, RKO p27 induced (arrested) cells, 10 μM Ponasterone A, 72 hours, value = class bound given in Table A, read-out: −logIC50 RKO p27 induced (arrested) (converted). The method in brief: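 Viability of proliferating versus Ponasterone A (10 μM)-arrested RKOp27/RKOp21 cells after 72 h compound exposure at 37° C, in quadruplicate. Read-out is Alamar Blue fluorescence (544/590 nm) normalised to untreated cells = 100%; values as −log IC50.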

In the case of `COc1cccc(C(C)CC(=O)Nc2sc3c(c2C#N)CCC(OC(=O)NCc2conc2C)C3)c1` (stereo not drawn) [Example 361, (3-Methyl-isoxazol-4-ylmethyl)-carbamic acid 3-cyano-2-[3-(3-methoxy-phenyl)-butanoyl-amino]-4,5,6,7-tetrahydro-benzo[b] thiophen-6-yl ester], the IC50 in assay [1] was at most 0.501 µM; in assay [2] it was at least 100 µM.

Consider `COc1cccc(C(C)CC(=O)Nc2sc3c(c2C#N)CCC(OC(=O)NCc2cc(C)no2)C3)c1` (stereo not drawn) [Example 362, (3-Methyl-isoxazol-5-ylmethyl)-carbamic acid 3-cyano-2-[3-(3-methoxy-phenyl)-butanoyl-amino]-4,5,6,7-tetrahydro-benzo[b]thiophen-6-yl ester], for which the IC50 in assay [1] was 0.501 to 2 µM; in assay [2], at least 100 µM.

For the molecule `COc1cccc(C(C)CC(=O)Nc2sc3c(c2C#N)CCC(COC(=O)NCc2csc(C)n2)C3)c1` (stereo not drawn) [Example 363, (2-Methyl-thiazol-4-ylmethyl)-carbamic acid 3-cyano-2-[3-(3-methoxy-phenyl)-butanoyl-amino]-4,5,6,7-tetrahydro-benzo[b]thiophen-6-ylmethyl ester], the IC50 is 0.501 to 2 µM in assay [1] and at least 100 µM in assay [2].

For `COc1cccc(C(C)CC(=O)Nc2sc3c(c2C#N)CCC(COC(=O)NCc2cc(C)no2)C3)c1` (stereo not drawn) [Example 364, (3-Methyl-isoxazol-5-ylmethyl)-carbamic acid 3-cyano-2-[3-(3-methoxy-phenyl)-butanoyl-amino]-4,5,6,7-tetrahydro-benzo[b]thiophen-6-ylmethyl ester], the IC50 in assay [1] was at most 0.501 µM; in assay [2], at least 100 µM.

On to `COc1cccc(C(C)CC(=O)Nc2sc3c(c2C#N)CCC(COC(=O)NCc2conc2C)C3)c1` (stereo not drawn) [Example 365], for which the IC50 in assay [1] was 0.501 to 2 µM; in assay [2], at least 100 µM.

Consider `CC(CC(=O)Nc1sc2c(c1C#N)CCC(OC(=O)N1CCOCC1)C2)c1ccccc1` (stereo not drawn) [Example 366, Morpholine-4-carboxylic acid 3-cyano-2-(3-phenyl-butanoyl-amino)-4,5,6,7-tetrahydro-benzo[b] thiophen-6-yl ester], for which the IC50 is at most 0.501 µM in assay [1] and at least 50.1 µM in assay [2].

In the case of `CC(CC(=O)Nc1sc2c(c1C#N)CCC(COC(=O)N1CCOCC1)C2)c1cccnc1` (stereo not drawn) [Example 367, Morpholine-4-carboxylic acid 3-cyano-2-(3-pyridin-3-yl-butanoylamino)-4,5,6,7-tetrahydro-benzo[b]thiophen-6-ylmethyl ester], the IC50 in assay [1] is 0.501 to 2 µM; in assay [2] it was at least 50.1 µM.

As to `CC(CC(=O)Nc1sc2c(c1C#N)CCC(OC(=O)OCc1nccs1)C2)c1ccccc1` (stereo not drawn) [Example 368, Carbonic acid 3-cyano-2-(3-phenyl-butanoylamino)-4,5,6,7-tetrahydro-benzo[b]thiophen-6-yl ester thiazol-2-ylmethyl ester], the values for the IC50 in assay [1] and in assay [2] were 0.501 to 2 µM and at least 50.1 µM, respectively.

Consider `CC(CC(=O)Nc1sc2c(c1C#N)CCC(OC(=O)N1CCCC1)C2)c1cccnc1` (stereo not drawn) [Example 369, Pyrrolidine-1-carboxylic acid 3-cyano-2-(3-pyridin-3-yl-butanoylamino)-4,5,6,7-tetrahydro-benzo[b]thiophen-6-yl ester], for which the IC50 was 0.501 to 2 µM in assay [1] and at least 50.1 µM in assay [2].

Turning to `Cc1cc(CNC(=O)OCC2CCc3c(sc(NC(=O)CC(C)c4cccnc4)c3C#N)C2)on1` (stereo not drawn) [Example 370, (3-Methyl-isoxazol-5-ylmethyl)-carbamic acid 3-cyano-2-(3-pyridin-3-yl-butanoylamino)-4,5,6,7-tetrahydro-benzo[b] thiophen-6-ylmethyl ester], the values for the IC50 in assay [1] and in assay [2] were 0.501 to 2 µM and at least 50.1 µM, respectively.

For the molecule `CC(CC(=O)Nc1sc2c(c1C#N)CCC(COC(=O)N1CCCC1)C2)c1ccccn1` (stereo not drawn) [Example 371, Pyrrolidine-1-carboxylic acid 3-cyano-2-(3-pyridin-2-yl-butanoylamino)-4,5,6,7-tetrahydro-benzo[b]thiophen-6-ylmethyl ester], the IC50 in assay [1] is 0.501 to 2 µM; in assay [2], at least 50.1 µM.

Turning to `CC(CC(=O)Nc1sc2c(c1C#N)CCC(OC(=O)NCc1ccno1)C2)c1ccccc1` (stereo not drawn) [Example 372, (Isoxazol-5-ylmethyl)-carbamic acid 3-cyano-2-(3-phenyl-butanoylamino)-4,5,6,7-tetrahydro-benzo[b]thiophen-6-yl ester], the IC50 in assay [1] was at most 0.501 µM; in assay [2] it was at least 50.1 µM.

For the molecule `Cc1cc(CNC(=O)OC2CCc3c(sc(NC(=O)CC(C)c4ccccc4)c3C#N)C2)on1` (stereo not drawn) [Example 373, (3-Methyl-isoxazol-5-ylmethyl)-carbamic acid 3-cyano-2-(3-phenyl-butanoylamino)-4,5,6,7-tetrahydro-benzo[b]thiophen-6-yl ester], the IC50 was at most 0.501 µM in assay [1] and at least 50.1 µM in assay [2].

Consider `COc1cccc(C(C)CC(=O)Nc2sc3c(c2C#N)CCC(OC(=O)N2CCOCC2)C3)c1` (stereo not drawn) [Example 374, Morpholine-4-carboxylic acid 3-cyano-2-(3-(3-methoxy-phenyl)-butanoylamino)-4,5,6,7-tetrahydro-benzo[b] thiophen-6-yl ester], for which the IC50 in assay [1] is at most 0.501 µM; in assay [2], at least 50.1 µM.

For the molecule `CC(CC(=O)Nc1sc2c(c1C#N)CCC(OC(=O)OCc1cncs1)C2)c1ccccc1` (stereo not drawn) [Example 375, Carbonic acid 3-cyano-2-(3-phenyl-butanoyl-amino)-4,5,6,7-tetrahydro-benzo[b] thiophen-6-yl ester thiazol-5-ylmethyl ester], the figures for the IC50 in assay [1] and in assay [2] were at most 0.501 µM and at least 10 µM, respectively.

For the molecule `COc1cccc(C(C)CC(=O)Nc2sc3c(c2C#N)CCC(OC(=O)N2CCCC2)C3)c1` (stereo not drawn) [Example 376, Pyrrolidine-1-carboxylic acid 3-cyano-2-(3-(3-methoxy-phenyl)-butanoylamino)-4,5,6,7-tetrahydro-benzo[b] thiophen-6-yl ester], the IC50 in assay [1] is at most 0.501 µM; in assay [2], at least 10 µM.

`Cc1nc(CNC(=O)OCC2CCc3c(sc(NC(=O)CC(C)c4cccnc4)c3C#N)C2)cs1` (stereo not drawn) [Example 377, (2-Methyl-thiazol-4-ylmethyl)-carbamic acid 3-cyano-2-(3-pyridin-3-yl-butanoylamino)-4,5,6,7-tetrahydro-benzo[b]thiophen-6-ylmethyl ester]: the IC50 in assay [1] was 0.501 to 2 µM; in assay [2], at least 10 µM.

Turning to `CC(CC(=O)Nc1sc2c(c1C#N)CCC(COC(=O)N1CCOCC1)C2)c1ccccc1` (stereo not drawn) [Example 378, Morpholine-4-carboxylic acid 3-cyano-2-[3-phenyl-butanoyl-amino]-4,5,6,7-tetrahydro-benzo[b] thiophen-6-ylmethyl ester], the IC50 is at most 0.501 µM in assay [1] and at least 10 µM in assay [2].
